“Also recorded” adds a separate entry of the source.
Key:
[1] = system: hypercholesterolemic patients; test: Phase 2b double-blind trial: safety, treatment-emergent adverse events and laboratory abnormalities; details: for Most common AEs: ALT increased / Most common AEs: AST increased / Most common AEs: Arthralgia / Most common AEs: Back pain / Most common AEs: Blood CK increased / Most common AEs: Constipation / Most common AEs: Headache / Most common AEs: Myalgia / Most common AEs: Nasopharyngitis / Most common AEs: Upper respiratory tract infection / Most common AEs: Urinary tract infection / Treatment-emergent AEs: Any AE(s) / Treatment-emergent AEs: Discontinuation due to AE(s) / Treatment-emergent AEs: Serious AE(s) / Treatment-emergent AEs: Study drug-related AE(s) / Any muscle-related AE / Muscle-related AE leading to discontinuation / Muscle-related AEs: Muscle spasms / Muscle-related AEs: Muscular weakness / Muscle-related AEs: Musculoskeletal chest pain / Muscle-related AEs: Musculoskeletal stiffness / Muscle-related AEs: Myalgia / Muscle-related AEs: Pain in extremity / Muscle-related AEs: Sensation of heaviness / Muscle-related AEs: Musculoskeletal pain: 12 weeks; for Most common AEs: ALT increased / Most common AEs: AST increased / Most common AEs: Arthralgia / Most common AEs: Back pain / Most common AEs: Blood CK increased / Most common AEs: Constipation / Most common AEs: Headache / Most common AEs: Myalgia / Most common AEs: Nasopharyngitis / Most common AEs: Upper respiratory tract infection / Most common AEs: Urinary tract infection / Treatment-emergent AEs: Any AE(s) / Treatment-emergent AEs: Discontinuation due to AE(s) / Treatment-emergent AEs: Serious AE(s) / Treatment-emergent AEs: Study drug-related AE(s): safety population; for Myalgia, patients affected: entire study population
Experimental: The study population included both statin-tolerant and statin-intolerant participants. Statin intolerance was defined as the inability to tolerate ≥2 statins because of muscle-related symptoms such as pain, weakness, or cramping that began or increased during statin therapy and resolved on statin discontinuation. At least 1 statin must have been administered at the lowest approved daily dose, defined as rosuvastatin 5 mg, atorvastatin 10 mg, simvastatin 10 mg, lovastatin 20 mg, pravastatin 40 mg, fluvastatin 40 mg, or pitavastatin 2 mg. Treatment with less than the lowest approved daily dose of a statin (i.e., skipping days) was considered equivalent to not tolerating 1 statin at the lowest approved daily dose.
Patients underwent a 5-week washout of all lipid-regulating drugs and dietary supplements and abstained from these drugs and supplements throughout the study. Patients also underwent a 5-week patient-only-blinded placebo run-in during the screening period (week −5 to week 0). This single-blind placebo run-in period was used to eliminate patients with muscle-related AEs during placebo treatment. Patients reporting new or worsening, unexplained muscle-related AEs during this run-in period were excluded from the study.
Patients were stratified (1:1) by history of statin intolerance and randomized at week 0 in a 4:4:4:1:1 ratio to once-daily treatment with capsules containing ETC-1002 120 mg, ETC-1002 180 mg, EZE, ETC-1002 120 mg plus EZE, or ETC-1002 180 mg plus EZE.
The safety of ETC-1002 was assessed using treatment-emergent AEs; hematology, serum chemistry, and urinalysis laboratory values; physical examination findings, vital sign measurements, electrocardiogram (ECG) readings; weight; and ankle and waist circumference measurements. AEs were coded using the Medical Dictionary for Regulatory Activities version 16.0 and evaluated by the investigator for severity and relation to study drug. Muscle-related AEs were defined as those from the system organ class of musculoskeletal and connective tissue disorders, except for those that were not obviously muscle related Terms included in the muscle-related AFE analysis were selected from this system organ class after database lock and before unblinding.
Safety analyses were performed on the safety population, which included randomized patients who received at least 1 dose of study drug. Baseline patient characteristics were summarized for the safety population by treatment group and statin-tolerance subgroup.
Muscle-related AEs also were summarized by statin-tolerance subgroup.

[2] = system: hypercholesterolemic patients; test: Phase 2b double-blind trial: percent changes from baseline to week 12 in lipids and CRP; type: in vivo, human; details: for Percent change from baseline to week 12 in Apolipoprotein A-I / Percent change from baseline to week 12 in Apolipoprotein B / Percent change from baseline to week 12 in HDL particle number / Percent change from baseline to week 12 in HDL-C / Percent change from baseline to week 12 in LDL particle number / Percent change from baseline to week 12 in LDL-C / Percent change from baseline to week 12 in Non-HDL-C / Percent change from baseline to week 12 in Total cholesterol / Percent change from baseline to week 12 in VLDL particle number: 12 weeks, mITT; for Percent change from baseline to week 12 in Apolipoprotein A-I / Percent change from baseline to week 12 in Apolipoprotein B / Percent change from baseline to week 12 in HDL particle number / Percent change from baseline to week 12 in HDL-C / Percent change from baseline to week 12 in LDL particle number / Percent change from baseline to week 12 in LDL-C / Percent change from baseline to week 12 in Non-HDL-C / Percent change from baseline to week 12 in Total cholesterol: LS mean ± SE; for Percent change from baseline to week 12 in VLDL particle number: median (interquartile range)
Experimental: LDL-C was calculated using the Friedewald equation.
The primary endpoint was the percent change from baseline to week 12 in calculated LDL-C in patients treated with ETC-1002 monotherapy versus those treated with EZE alone. Secondary endpoints included the dose-response relationship between ETC-1002 and the percent change in LDL-C from baseline to week 12, the percent change in LDL-C from baseline to week 12 in patients treated with ETC-1002 plus EZE versus those treated with EZE alone, and the percent change from baseline to week 12 for all treatment groups in LDL particle number, apolipoprotein B, total cholesterol, non-high-density lipoprotein cholesterol (non-HDL-C), HDL-C, HDL particle number, apolipoprotein A-I, triglycerides, very-low-density lipoprotein (VLDL) particle number, and high-sensitivity C-reactive protein (CRP). Lipoprotein particle number was measured using nuclear magnetic resonance […].
An analysis of covariance was used to compare each ETC-1002 treatment group with EZE monotherapy for each of the efficacy endpoints. The primary model included the effects of treatment and statin intolerance and the baseline value as a covariate. Baseline was defined as the mean of values from weeks −1 and 0 for LDL-C, non-HDL-C, total cholesterol, HDL-C, and triglycerides. For all other lipid and biomarker measures, baseline was defined as the last value before the first dose of study drug. Missing values at week 12 were imputed using the last-observation-carried-forward procedure. When LDL-C could not be calculated (i.e., triglycerides >400 mg/dL), beta-quantification measurements were used to determine LDL-C values. Least-squares (LS) means and standard errors were obtained for each treatment group; differences in LS means and p-values were obtained for the treatment comparisons. Graphical methods (e.g., normal probability plot and histogram of residuals, plot of residuals vs. predicted values) or analytical methods (e.g., Shapiro-Wilk test), or both, were used to assess the model assumptions. Because of departures from normality observed in the parameters of triglycerides, CRP, and VLDL particle number, nonparametric analyses were performed for these measures, with p-values obtained from the Wilcoxon rank-sum test and median values presented.
Percent changes from baseline in LDL-C also were summarized by statin-tolerance subgroup. To assess the dose-response relationship for ETC-1002 monotherapy, the primary analysis of covariance model was used for the comparison of the ETC-1002 120 mg and ETC-1002 180 mg. Statistical testing of the efficacy endpoints was 2-sided and conducted at the 5% level of significance with no adjustment for multiple comparisons.

[3] = ETC-1002 120 mg once daily, statin-intolerant patients
[4] = ETC-1002 120 mg once daily, statin-tolerant patients
[5] = ETC-1002 180 mg once daily, statin-intolerant patients
[6] = ETC-1002 180 mg once daily, statin-tolerant patients

## CC(C)(CCCCCC(O)CCCCCC(C)(C)C(=O)O)C(=O)O [ETC-1002, 8-hydroxy-2,2,14,14 tetramethylpentadecanedioic acid]
[1]; ETC-1002 120 mg
  Alanine aminotransferase or aspartate aminotransferase, or both, increased >3 times the upper limit of normal at any measurement: 1 patients
  Serious AEs reported (events): hemothorax; also recorded: sudden death
  Myalgia, patients affected: 3%
[1]; ETC-1002 120 mg once daily
  Most common AEs: ALT increased: 0 n (%)
  Most common AEs: AST increased: 0 n (%)
  Most common AEs: Arthralgia: 4 (4%) n (%)
  Most common AEs: Back pain: 1 (1%) n (%)
  Most common AEs: Blood CK increased: 1 (1%) n (%)
  Most common AEs: Constipation: 3 (3%) n (%)
  Most common AEs: Headache: 3 (3%) n (%)
  Most common AEs: Myalgia: 3 (3%) n (%)
  Most common AEs: Nasopharyngitis: 3 (3%) n (%)
  Most common AEs: Upper respiratory tract infection: 6 (6%) n (%)
  Most common AEs: Urinary tract infection: 0 n (%)
  Treatment-emergent AEs: Any AE(s): 50 (51%) n (%)
  Treatment-emergent AEs: Discontinuation due to AE(s): 3 (3%) n (%)
  Treatment-emergent AEs: Serious AE(s): 2 (2%) n (%)
  Treatment-emergent AEs: Study drug-related AE(s): 13 (13%) n (%)
[1]; [3]
  Any muscle-related AE: 7 (14%) n (%)
  Muscle-related AE leading to discontinuation: 1 (2%) n (%)
  Muscle-related AEs: Muscle spasms: 3 (6%) n (%)
  Muscle-related AEs: Muscular weakness: 2 (4%) n (%)
  Muscle-related AEs: Musculoskeletal chest pain: 0 n (%)
  Muscle-related AEs: Musculoskeletal stiffness: 0 n (%)
  Muscle-related AEs: Myalgia: 2 (4%) n (%)
  Muscle-related AEs: Pain in extremity: 1 (2%) n (%)
  Muscle-related AEs: Sensation of heaviness: 0 n (%)
[1]; [4]
  Any muscle-related AE: 1 (2%) n (%)
  Muscle-related AE leading to discontinuation: 0 n (%)
  Muscle-related AEs: Muscle spasms: 0 n (%)
  Muscle-related AEs: Musculoskeletal pain: 0 n (%)
  Muscle-related AEs: Myalgia: 1 (2%) n (%)
[1]; ETC-1002 180 mg
  Alanine aminotransferase or aspartate aminotransferase, or both, increased >3 times the upper limit of normal at any measurement: 2 patients
  Serious AEs reported (events): pancreatitis relapse
  Myalgia, patients affected: 1%
[1]; ETC-1002 180 mg once daily
  Most common AEs: ALT increased: 0 n (%)
  Most common AEs: AST increased: 0 n (%)
  Most common AEs: Arthralgia: 1 (1%) n (%)
  Most common AEs: Back pain: 1 (1%) n (%)
  Most common AEs: Blood CK increased: 4 (4%) n (%)
  Most common AEs: Constipation: 1 (1%) n (%)
  Most common AEs: Headache: 2 (2%) n (%)
  Most common AEs: Myalgia: 1 (1%) n (%)
  Most common AEs: Nasopharyngitis: 5 (5%) n (%)
  Most common AEs: Upper respiratory tract infection: 6 (6%) n (%)
  Most common AEs: Urinary tract infection: 4 (4%) n (%)
  Treatment-emergent AEs: Any AE(s): 55 (55%) n (%)
  Treatment-emergent AEs: Discontinuation due to AE(s): 6 (6%) n (%)
  Treatment-emergent AEs: Serious AE(s): 1 (1%) n (%)
  Treatment-emergent AEs: Study drug-related AE(s): 18 (18%) n (%)
[1]; [5]
  Any muscle-related AE: 6 (12%) n (%)
  Muscle-related AE leading to discontinuation: 2 (4%) n (%)
  Muscle-related AEs: Muscle spasms: 2 (4%) n (%)
  Muscle-related AEs: Muscular weakness: 1 (2%) n (%)
  Muscle-related AEs: Musculoskeletal chest pain: 1 (2%) n (%)
  Muscle-related AEs: Musculoskeletal stiffness: 0 n (%)
  Muscle-related AEs: Myalgia: 1 (2%) n (%)
  Muscle-related AEs: Pain in extremity: 1 (2%) n (%)
  Muscle-related AEs: Sensation of heaviness: 0 n (%)
[1]; [6]
  Any muscle-related AE: 0 n (%)
  Muscle-related AE leading to discontinuation: 0 n (%)
  Muscle-related AEs: Muscle spasms: 0 n (%)
  Muscle-related AEs: Musculoskeletal pain: 0 n (%)
  Muscle-related AEs: Myalgia: 0 n (%)
[2]; ETC-1002 120 mg
  Decrease in median CRP from baseline to week 12 endpoint: 30%
[2]; ETC-1002 120 mg alone
  LDL-C reduction from baseline to week 12: 27%
[2]; ETC-1002 120 mg once daily
  Percent change from baseline to week 12 in Apolipoprotein A-I: −0.2 ± 1.1%
  Percent change from baseline to week 12 in Apolipoprotein B: −19.3 ± 1.3 %
  Percent change from baseline to week 12 in HDL particle number: 5.0 ± 1.3%
  Percent change from baseline to week 12 in HDL-C: −5.8 ± 1.4 %
  Percent change from baseline to week 12 in LDL particle number: −21.8 ± 1.7 %
  Percent change from baseline to week 12 in LDL-C: −27.5 ± 1.3 %
  Percent change from baseline to week 12 in Non-HDL-C: −23.2 ± 1.2 %
  Percent change from baseline to week 12 in Total cholesterol: −19.3 ± 0.9 %
  Percent change from baseline to week 12 in VLDL particle number: −2.7 (68.5) %
[2]; ETC-1002 180 mg
  Decrease in median CRP from baseline to week 12 endpoint: 40%
[2]; ETC-1002 180 mg alone
  LDL-C reduction from baseline to week 12: 30%
[2]; ETC-1002 180 mg once daily
  Percent change from baseline to week 12 in Apolipoprotein A-I: 0.1 ± 1.2%
  Percent change from baseline to week 12 in Apolipoprotein B: −21.3 ± 1.3 %
  Percent change from baseline to week 12 in HDL particle number: 6.2 ± 1.4%
  Percent change from baseline to week 12 in HDL-C: −4.8 ± 1.4 %
  Percent change from baseline to week 12 in LDL particle number: −24.6 ± 1.8 %
  Percent change from baseline to week 12 in LDL-C: −30.1 ± 1.3 %
  Percent change from baseline to week 12 in Non-HDL-C: −25.3 ± 1.1 %
  Percent change from baseline to week 12 in Total cholesterol: −20.7 ± 0.9 %
  Percent change from baseline to week 12 in VLDL particle number: 15.3 (80.5) %
[2]; ETC-1002 alone (120 mg or 180 mg), up to
  LDL-C reduction from baseline to week 12: up to 30%
